These results are taken from ChEMBL document CHEMBL3507680, “University of Dundee, Gates Library screen for HepG2 cell viability”.

This series in a line: Human HepG2 cell viability assay in 384 well format. The note with it: HepG2 cells, read-out: Inhibition. On the set-up: dose 125 nL, time 70.5 hour; concentration not given beside the values. It counts as toxicity, cell-based.

With `Cc1ncncc1C(=O)N1CCCN(Cc2ncc(Cl)n2C)CC1`, the cytotoxicity at 70.5 h is -1.21%.

Turning to `COc1ccccc1NCC(=O)Nc1cnn(Cc2ccccn2)c1`, the cytotoxicity at 70.5 h was -3.02%.

`COc1cccc(/C=C/CCN2CCCN(C(C)=O)CC2)c1`: the cytotoxicity at 70.5 h is -6.2%.

On to `CCOc1ccccc1N(C)Cc1nccn1C`, for which the cytotoxicity at 70.5 h is 4.63%.

With `Cc1ccc2cccc(C(=O)NCCOCC3CC3)c2n1`, the cytotoxicity at 70.5 h is -0.418%.

On to `O=C(NCCc1cccnc1)NCCc1cccs1`, for which the cytotoxicity at 70.5 h came to 2.09%.

As to `CC(C)Cc1noc(CN2CCC(C(=O)NCC3CCCO3)CC2)n1` (stereo not drawn), the cytotoxicity at 70.5 h worked out at 10.6%.

In the case of `COCCn1nc(C(=O)N2CCOCC2C)ccc1=O` (stereo not drawn), the cytotoxicity at 70.5 h was found to be 16.9%.

For `COc1ccncc1NC(=O)C1(c2ccc(F)cc2)CCC1`, the cytotoxicity at 70.5 h is -6.62%.

With `COC(=O)c1ccc(N2CCN(C(=O)C3CCC3)C(C)C2)cc1` (stereo not drawn), the cytotoxicity at 70.5 h was determined as 17.6%.

For the compound `COC(=O)CCNC(=O)c1nnn(-c2ccccc2)c1C(F)(F)F`, the cytotoxicity at 70.5 h is 0.121%.

With `Cc1nnc2n1CCN(CC(=O)NC(C)c1ccc3ccccc3c1)C2` (stereo not drawn), the cytotoxicity at 70.5 h was 17.7%.

For the compound `COC(=O)c1ccc(N2CCN(C(=O)CC(F)(F)F)C(C)C2)cc1` (stereo not drawn), the cytotoxicity at 70.5 h is -9.89%.

As for `Cc1cc(C(=O)NC2(C#N)CCCC2)c(C)n1-c1cccnc1`, the cytotoxicity at 70.5 h was -6.05%.

With `CCc1nc(CNC2CCN(c3ccc(OC)cc3)CC2)cs1`, the cytotoxicity at 70.5 h is -5.26%.

For `Cc1c(C(=O)N2CCCOCC2)nnn1-c1cccc2cnccc12`, the cytotoxicity at 70.5 h was -0.438%.

Take `Cc1cc(NC(=O)CNC(C)(C)c2nc(C)c(C)s2)no1`: the cytotoxicity at 70.5 h is -7.18%.

With `Cn1c(=O)[nH]c2cc(C(=O)OCCCn3ccccc3=O)ccc21`, the cytotoxicity at 70.5 h is 33.2%.

For the compound `NC(=O)NC(=O)CCN1CCN(CC2CC2)c2ccccc21`, the cytotoxicity at 70.5 h amounted to 31.2%.

Turning to `NC(=O)NC(=O)CN1CCN(CC2CC2)c2ccccc21`, the cytotoxicity at 70.5 h was 8.16%.

On to `Cc1c(C(=O)N2CC(C)(C)C2(C)C)nnn1-c1cccc2cnccc12`, for which the cytotoxicity at 70.5 h was -2.78%.

As for `Cc1c(C(=O)N2CC(O)C2)nnn1-c1cccc2cnccc12`, the cytotoxicity at 70.5 h is -8.03%.

As for `COc1ccccc1C(=O)N(Cc1nc(C)cs1)CC1CCCO1` (stereo not drawn), the cytotoxicity at 70.5 h is 22.1%.

With `CC(C)Cc1noc(CNc2cccc(-c3nnnn3C)c2)n1`, the cytotoxicity at 70.5 h was -11%.

On to `Cc1csc(CN(CC2CCCO2)C(=O)c2ccc(C)nc2C)n1` (stereo not drawn), for which the cytotoxicity at 70.5 h worked out at 15.4%.

Consider `CCOCCOC(C)C(=O)NCc1ccc(N2CCCCC2)cc1` (stereo not drawn), for which the cytotoxicity at 70.5 h was determined as 0.804%.

As for `Cc1csc(CN(CC2CCCO2)C(=O)c2occc2C)n1` (stereo not drawn), the cytotoxicity at 70.5 h was found to be 22.1%.

With `CS(=O)(=O)NCC1CCCCN1Cc1cccc(C#N)c1` (stereo not drawn), the cytotoxicity at 70.5 h is -1.33%.

In the case of `CCOc1ccnc(N2CCCN(c3nc(CC)ns3)CC2)n1`, the cytotoxicity at 70.5 h was -2.91%.

Consider `CC(C(=O)Nc1ccc(C#N)cc1)N1CCc2ccccc21` (stereo not drawn), for which the cytotoxicity at 70.5 h was found to be 43.4%.

Regarding `c1csc(-c2nc(CN3CCN(c4cnccn4)CC3)co2)c1`, the cytotoxicity at 70.5 h was -18.4%.

With `CCNC(=O)NC(=O)C(C)Nc1ccccc1OCCOC` (stereo not drawn), the cytotoxicity at 70.5 h is -11.3%.

As to `CN(CC(=O)Nc1nc2c(s1)CCC2)C(=O)c1cccs1`, the cytotoxicity at 70.5 h is -12.8%.

In the case of `NC(=O)CN(CC(=O)NCc1cc(F)cc(F)c1)C1CCCC1`, the cytotoxicity at 70.5 h is -10.9%.

As to `Cc1ccc(N2CCCN(C(=O)c3cccc4c3ccn4C)CC2)nn1`, the cytotoxicity at 70.5 h was -7.32%.

On to `COC(=O)N1CCCC(NC(=O)NCc2csc(C)n2)C1` (stereo not drawn), for which the cytotoxicity at 70.5 h is -10.6%.

Consider `CCNc1cc2c(nn1)CCN(C(=O)C1COc3ccccc3O1)C2` (stereo not drawn), for which the cytotoxicity at 70.5 h was -12.7%.

Take `CCNc1cc2c(nn1)CCN(C(=O)C1COc3ccccc3C1)C2` (stereo not drawn): the cytotoxicity at 70.5 h was -12.3%.

As to `COCc1ccc(C(=O)N2CCN(CCS(C)(=O)=O)CC2)cc1`, the cytotoxicity at 70.5 h is -10.7%.

With `CC(C)CCS(=O)(=O)CC(=O)N1CCCC1c1cnn(C)c1` (stereo not drawn), the cytotoxicity at 70.5 h was -5.18%.

For the compound `CN(C)c1cc2c(nn1)CCN(C(=O)C1COc3ccccc3C1)C2` (stereo not drawn), the cytotoxicity at 70.5 h amounted to 3.17%.

For the compound `CN(C)c1cc2c(nn1)CCN(C(=O)c1cc3c(s1)CCOC3)C2`, the cytotoxicity at 70.5 h was -15.2%.

As to `Cc1csc(C2CCCN(C(=O)c3cnn4ccc(C)nc34)C2)n1` (stereo not drawn), the cytotoxicity at 70.5 h is -8.34%.

On to `CC(CNC(=O)c1cc(N2CCNC2=O)ccc1F)c1ccccc1` (stereo not drawn), for which the cytotoxicity at 70.5 h was -6.76%.

In the case of `COCCNc1ccccc1CNC(=O)NCc1cnc(C)s1`, the cytotoxicity at 70.5 h is -0.0167%.

In the case of `COCCNc1ccccc1CNC(=O)NCc1nc(C)c(C)s1`, the cytotoxicity at 70.5 h was -7.21%.

`CCOCCN1CCN(CCC(=O)N2CCCCC2)CC1`: the cytotoxicity at 70.5 h is -8.84%.

As to `COc1cc(CN2CCC(NC(=O)c3cccn3C)C2)cc(OC)c1` (stereo not drawn), the cytotoxicity at 70.5 h was -7.95%.

With `CCCNC(=O)Cn1c(C)nn(C(C)(C)C)c1=O`, the cytotoxicity at 70.5 h was determined as 9.3%.

Regarding `CC(C)N(CCNC(=O)N1CCCC(N(C)C)C1)C1CC1` (stereo not drawn), the cytotoxicity at 70.5 h was found to be 13.5%.

Turning to `COC1CCN(CCNC(=O)NC(C)c2ccc(F)c(F)c2)CC1` (stereo not drawn), the cytotoxicity at 70.5 h came out at 23.5%.

`CCCNC1(c2ccc(Cl)cc2)CCOCC1`: the cytotoxicity at 70.5 h stood at 6.67%.

In the case of `O=C(CNC(=O)C1CC1)NCc1ccc(Cl)s1`, the cytotoxicity at 70.5 h was 1.44%.

As for `Cc1sc(-c2ccco2)nc1C(=O)N(CC1CCOC1)C1CC1` (stereo not drawn), the cytotoxicity at 70.5 h was -1.94%.

Turning to `CCN(CC1CCOC1)C(=O)c1nc(-c2ccco2)sc1C` (stereo not drawn), the cytotoxicity at 70.5 h was -2.01%.

In the case of `Cc1sc(-c2ccco2)nc1C(=O)NCC1CCOC1` (stereo not drawn), the cytotoxicity at 70.5 h turned out to be 1.39%.

Take `O=C(Nc1ccc(-n2cncn2)nc1)N(CC1CCOC1)C1CC1` (stereo not drawn): the cytotoxicity at 70.5 h was -1.97%.

With `Cc1sc(-c2ccco2)nc1C(=O)N(CC(N)=O)C1CCCC1`, the cytotoxicity at 70.5 h is -2.05%.

For the compound `CN(CCCNC(=O)c1ccccc1OCC(N)=O)CC(F)(F)F`, the cytotoxicity at 70.5 h worked out at 1.62%.

In the case of `Cc1nc(CSCCC(=O)NCCNC(=O)OC(C)(C)C)cs1`, the cytotoxicity at 70.5 h came to 3.27%.

As for `Cc1ccc(-c2nc(C(=O)N3CCCCC3CNS(C)(=O)=O)cs2)cc1` (stereo not drawn), the cytotoxicity at 70.5 h amounted to 11%.

Consider `COCCC(=O)N1CCC(Nc2ncc(Cl)cn2)CC1`, for which the cytotoxicity at 70.5 h was 0.73%.

As for `Cc1ccc(CNC(=O)N2CCN(C(C)c3cccnc3)CC2)cn1` (stereo not drawn), the cytotoxicity at 70.5 h is -3.85%.

For the compound `Cn1cc(N2CCCC(Nc3ccc4c(c3)CCCO4)C2=O)cn1` (stereo not drawn), the cytotoxicity at 70.5 h was -0.945%.

As to `COC1CCN(CCNC(=O)NC(C)c2cccc(Cl)c2)CC1` (stereo not drawn), the cytotoxicity at 70.5 h was -0.888%.

Consider `CC(NC(=O)COc1cccc[n+]1[O-])C1CC1` (stereo not drawn), for which the cytotoxicity at 70.5 h is -4.57%.

In the case of `COCCN(C(=O)c1nc(-c2ccco2)sc1C)C1CC1`, the cytotoxicity at 70.5 h was -2.88%.

For `Cc1ccc(-n2cnnn2)cc1NCC(=O)Nc1cc(F)ccc1F`, the cytotoxicity at 70.5 h is -66.2%.

Take `Cc1ccc(-n2cnnn2)cc1NCC(=O)Nc1ccccc1Cl`: the cytotoxicity at 70.5 h was -101%.

On to `CCC(C)NC(=O)c1nnn(-c2cccc3c2CCN(C)C3)c1C` (stereo not drawn), for which the cytotoxicity at 70.5 h stood at 2.37%.

In the case of `COCCCNC(=O)Nc1cccc2c1CCN(S(C)(=O)=O)C2`, the cytotoxicity at 70.5 h is 21.4%.

As for `CC(C)NC(=O)Nc1cccc2c1CCN(S(C)(=O)=O)C2`, the cytotoxicity at 70.5 h is -1.67%.

Take `CC(NCc1ccc(C(N)=O)cc1)c1ccc(Cl)c(Cl)c1` (stereo not drawn): the cytotoxicity at 70.5 h was -11.9%.
